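How tested: cells in 96-well plates exposed to compound for 48 hours at five concentrations. Here, GI50 denotes the concentration required for 50% inhibition of growth.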 Active and inactive are the calls of the source. No stated cut-off is given here; in the data, active = GI50 up to about 1.1 µM and inactive = higher.
Experiments:
Assay in all cases: NCI-60 cell line screen, 48 h
786-0 = tested on: 786-0
A498 = tested on: A498
A549 = tested on: A549
ACHN = tested on: ACHN
CAKI-1 = tested on: CAKI-1
CCRF-CEM = tested on: CCRF-CEM
COLO 205 = tested on: COLO 205
DLD-1 = tested on: DLD-1
DMS-114 = tested on: DMS-114
DMS-273 = tested on: DMS-273
EKVX = tested on: EKVX
HCC 2998 = tested on: HCC 2998
HCT-116 = tested on: HCT-116
HCT-15 = tested on: HCT-15
HL-60 = tested on: HL-60
HOP-18 = tested on: HOP-18
HOP-62 = tested on: HOP-62
HOP-92 = tested on: HOP-92
HT-29 = tested on: HT-29
IGROV-1 = tested on: IGROV-1
K562 = tested on: K562
KM-20L2 = tested on: KM-20L2
KM12 = tested on: KM12
LOX IMVI = tested on: LOX IMVI
LXFL 529 = tested on: LXFL 529
M14 = tested on: M14
M19-MEL = tested on: M19-MEL
MOLT-4 = tested on: MOLT-4
Malme-3M = tested on: Malme-3M
NCI-H226 = tested on: NCI-H226
NCI-H23 = tested on: NCI-H23
NCI-H460 = tested on: NCI-H460
NCI-H522 = tested on: NCI-H522
OVCAR-3 = tested on: OVCAR-3
OVCAR-4 = tested on: OVCAR-4
OVCAR-5 = tested on: OVCAR-5
OVCAR-8 = tested on: OVCAR-8
RPMI-8226 = tested on: RPMI-8226
RXF 393 = tested on: RXF 393
RXF 631 = tested on: RXF 631
SF-268 = tested on: SF-268
SF-295 = tested on: SF-295
SF-539 = tested on: SF-539
SK-MEL-28 = tested on: SK-MEL-28
SK-MEL-2 = tested on: SK-MEL-2
SK-MEL-5 = tested on: SK-MEL-5
SK-OV-3 = tested on: SK-OV-3
SN12C = tested on: SN12C
SNB-19 = tested on: SNB-19
SNB-75 = tested on: SNB-75
SNB-78 = tested on: SNB-78
SR = tested on: SR
SW-620 = tested on: SW-620
TK-10 = tested on: TK-10
U-251 = tested on: U-251
UACC-257 = tested on: UACC-257
UACC-62 = tested on: UACC-62
UO-31 = tested on: UO-31
XF498 = tested on: XF498

Measured: GI50

O=C(CC1(O)C(=O)Nc2c(Cl)cc(Cl)cc21)c1ccc(Br)cc1 (configuration not stated)
35 µM: HCT-15
inactive: 786-0 13.2 µM | A498 > 49.2 µM | A549 20.7 µM | ACHN 15.3 µM | CAKI-1 16.1 µM | CCRF-CEM 14.9 µM | COLO 205 > 40.7 µM | DLD-1 13.2 µM | DMS-114 20.6 µM | DMS-273 13.5 µM | EKVX 15.2 µM | HCC 2998 39.5 µM | HCT-116 17.5 µM | HL-60 4.3 µM | HOP-18 15.7 µM | HOP-62 20.2 µM | HOP-92 15.7 µM | HT-29 37.7 µM | IGROV-1 18.2 µM | K562 24.5 µM | KM-20L2 16.8 µM | KM12 15.2 µM | LOX IMVI 22.5 µM | LXFL 529 > 37.9 µM | M14 17.6 µM | M19-MEL 7.76 µM | MOLT-4 22.1 µM | Malme-3M > 41.3 µM | NCI-H226 14.9 µM | NCI-H23 14 µM | NCI-H460 38.6 µM | NCI-H522 16.6 µM | OVCAR-3 14.1 µM | OVCAR-4 12.4 µM | OVCAR-5 17.2 µM | OVCAR-8 33.8 µM | RPMI-8226 13 µM | RXF 393 16 µM | RXF 631 12.4 µM | SF-268 16.4 µM | SF-295 29.5 µM | SF-539 16.3 µM | SK-MEL-28 19.7 µM | SK-MEL-2 > 41.1 µM | SK-MEL-5 16.9 µM | SK-OV-3 27 µM | SN12C 33.1 µM | SNB-19 16.3 µM | SNB-75 17.1 µM | SNB-78 19.1 µM | SR 19.8 µM | SW-620 26.9 µM | TK-10 17.6 µM | U-251 13.4 µM | UACC-257 29.4 µM | UACC-62 9.08 µM | UO-31 12.9 µM

COC(=O)C1=NC(=S)NC(c2ccccc2)C1c1nc2ccccc2s1 (configuration not stated)
inactive: 786-0 > 100 µM | A498 > 100 µM | A549 > 100 µM | ACHN > 100 µM | CAKI-1 > 100 µM | CCRF-CEM > 100 µM | COLO 205 > 100 µM | DLD-1 > 100 µM | DMS-114 > 100 µM | DMS-273 > 100 µM | EKVX > 100 µM | HCC 2998 > 100 µM | HCT-116 > 100 µM | HL-60 98.2 µM | HOP-18 > 100 µM | HOP-62 > 100 µM | HOP-92 > 100 µM | HT-29 > 100 µM | IGROV-1 > 100 µM | KM-20L2 > 100 µM | KM12 > 100 µM | LXFL 529 > 100 µM | M14 > 100 µM | M19-MEL > 100 µM | MOLT-4 > 100 µM | Malme-3M > 100 µM | NCI-H226 > 100 µM | NCI-H23 > 100 µM | NCI-H460 > 100 µM | OVCAR-3 > 100 µM | OVCAR-4 > 100 µM | OVCAR-8 > 100 µM | RXF 393 > 100 µM | RXF 631 > 100 µM | SF-268 > 100 µM | SF-295 > 100 µM | SF-539 67.8 µM | SK-MEL-28 > 100 µM | SK-MEL-2 > 100 µM | SK-MEL-5 > 100 µM | SK-OV-3 > 100 µM | SN12C > 100 µM | SNB-19 > 100 µM | SNB-75 55.3 µM | SNB-78 > 100 µM | SR > 100 µM | SW-620 > 100 µM | TK-10 > 100 µM | U-251 > 100 µM | UACC-257 > 100 µM | UACC-62 > 100 µM | UO-31 > 100 µM
> 100 µM: HCT-15

O=C(CC1(O)C(=O)Nc2ccc(Br)cc21)c1ccc(Cl)cc1 (configuration not stated)
inactive: 786-0 75.7 µM | A498 > 100 µM | A549 > 100 µM | ACHN > 100 µM | CCRF-CEM 38.9 µM | COLO 205 > 100 µM | DLD-1 70.8 µM | EKVX > 100 µM | HCT-116 44.4 µM | HL-60 > 10 µM | HOP-18 72.4 µM | HOP-62 68.9 µM | HOP-92 35.2 µM | HT-29 42 µM | IGROV-1 > 100 µM | K562 58.7 µM | KM-20L2 > 100 µM | KM12 47.4 µM | LOX IMVI 18.2 µM | LXFL 529 > 100 µM | M14 83.2 µM | MOLT-4 43.3 µM | Malme-3M > 100 µM | NCI-H226 > 100 µM | NCI-H23 67.6 µM | NCI-H460 > 100 µM | NCI-H522 > 100 µM | OVCAR-3 > 100 µM | OVCAR-4 69.7 µM | OVCAR-5 > 100 µM | OVCAR-8 52 µM | RPMI-8226 42.3 µM | RXF 393 52.2 µM | RXF 631 31.5 µM | SF-268 > 100 µM | SF-295 > 100 µM | SF-539 50.7 µM | SK-MEL-28 > 100 µM | SK-MEL-2 > 100 µM | SK-MEL-5 > 100 µM | SK-OV-3 > 100 µM | SN12C 77.8 µM | SNB-19 84.9 µM | SNB-75 16.3 µM | SNB-78 83.8 µM | SW-620 43.2 µM | TK-10 > 100 µM | U-251 27.6 µM | UACC-257 30.2 µM | UACC-62 36.2 µM | UO-31 > 100 µM
> 100 µM: HCT-15

CCCc1cc(OC(=O)c2c(O)cc(OC)cc2CCC)cc(O)c1C(=O)O
inactive: 786-0 36 µM | A498 28.9 µM | A549 30.2 µM | ACHN 27.9 µM | CCRF-CEM 32.8 µM | COLO 205 26.4 µM | DLD-1 36.5 µM | DMS-114 19.6 µM | DMS-273 32.1 µM | EKVX 26.2 µM | HCC 2998 25.2 µM | HCT-116 17.4 µM | HL-60 23 µM | HOP-62 16.6 µM | HOP-92 13.5 µM | HT-29 33 µM | IGROV-1 47.9 µM | K562 32.5 µM | KM-20L2 37.4 µM | KM12 28.2 µM | LOX IMVI 23.8 µM | LXFL 529 24.1 µM | M14 28.4 µM | M19-MEL 42.8 µM | MOLT-4 29.5 µM | Malme-3M 17.5 µM | NCI-H23 18 µM | NCI-H460 23.9 µM | NCI-H522 16 µM | OVCAR-3 20.6 µM | OVCAR-5 35 µM | OVCAR-8 37.5 µM | RPMI-8226 24.2 µM | RXF 393 16.6 µM | RXF 631 26.3 µM | SF-539 18 µM | SK-MEL-28 28.2 µM | SK-MEL-2 20.5 µM | SK-OV-3 22.4 µM | SNB-19 25.1 µM | SNB-75 27.5 µM | SNB-78 25 µM | SW-620 37.9 µM | TK-10 48.5 µM | U-251 23.9 µM | UACC-257 18.8 µM | UACC-62 35.7 µM | UO-31 13 µM | XF498 25.9 µM
